# According to patent publication US20140228540A1, “POLYPEPTIDES THAT BIND TISSUE INHIBITOR OF METALLOPROTEINASE TYPE THREE (TIMP-3), COMPOSITIONS AND METHODS” (Amgen Inc., priority 2009, published 2014):
# Like-named read-outs stand apart in the source and are kept apart here.
# Assays:
# HTB-94 cells = assay: Accumulation of TIMP-3 in the medium of cultured HTB-94 cells; type: cell-based
# Protocol: This example describes an assay to evaluate the accumulation of TIMP-3 in the medium of cultured cells. HTB-94™ cells (a chondrocytic cell line available from the American Type Culture Collection, Manassas, Va.) are plated to 24-well tissue culture plates at 1×10̂5 cells per well in 1 ml growth medium (RPM11640, 10% FBS, 1% PSG), and incubated at 37 C, 5% CO2 overnight. The cells are then washed once with PBS, and the wells are replenished with 250 microL serum-free medium (RPM11640, 1% PSG; designated SF in the tables below) to which is added the polypeptide being tested or a control (for example medium containing heparin, 1 mg/ml). Proteins to be tested are diluted to appropriate concentrations, for example as shown in the Tables below, and added to the cells. Cells are then incubated at 37 C, 5% CO2 for two additional days, day 2 conditioned medium (CM) samples are collected and clarified by centrifugation (i.e., for 5 minutes at 10K RPM) and the supernatant fluid is collected and stored at −20 C until assayed. Analysis is done on 100 microL CM samples, either by Western blot or by using a standard human TIMP-3 ELISA as per the manufacturer's protocol (R&D Systems Inc., Minneapolis, Minn.).
# [1] = tested on: biotinylated recombinant human or mouse TIMP-3; assay: TIMP-3 AlphaScreen binding assay
# Protocol: Peptides were also evaluated by AlphaScreen® (Amplified Luminescent Proximity Homogeneous Assay; PerkinElmer, Waltham, Mass.) a very sensitive non-radioactive homogeneous assay technology that allows the screening of a large range of biological interactions and activities, substantially according to the manufacturer's instructions. Briefly, all dilutions are made in AlphaScreen® Buffer: [40 mM HEPES pH 7.5, 100 mM NaCl, 1 mM CaCl2, 0.1% BSA, 0.05% Tween-20]. The LRP-1 peptides are titrated in a separate polypropylene 96-well plate (Falcon) starting at 4 microM concentration and then diluted serially 3-fold for 12-points, with the last point buffer only. First 2 microL/well of protein titration curve is added to white, small volume, 384-well assay plate (Greiner Bio-One, Stonehouse, UK) in duplicate. Next, 2 microL of biotinylated (AFS, in-house conjmicroGation) recombinant human or mouse TIMP-3, is added at 12 nM (or 3 nM final assay concentration) to the assay plate. Lastly, in subdued light 4 microL of a mixture of streptavidin donor beads, anti-mouse IgG acceptor beads (PerkinElmer) both diluted to 20 microG/mL (10 microG/mL final assay concentration) and 2 nM (1 nM final concentration) rat-anti-HA (clone3F10)-HRP (Roche Diagnostics) is added to the plates. Plates containing 8 microL final assay volume are covered with TopSeal A (to prevent evaporation), spun quickly at 1000 rpm, and incubated overnight (covered with foil to prevent light exposure) before reading on Fusion plate reader (PerkinElmer) using AlphaScreen® parameters (excitation 680 nm and emission 520-620 nm). Data is analyzed using GraphPad Prism 4.01 software. Binding to TIMP-3 is reported as total signal (cps).
# TIMP-3 = assay: Binding ELISA of LRP-1 peptides to TIMP-3 (Table 2; format and species not specified); set-up: species or system human or mouse
# [2] = Assay 1, read-out: Binding ELISA EC50 (nm) Assay 1
Molecule,AlphaScreen total signal (cps) Assay 1 [1],AlphaScreen total signal (cps) Assay 2 [1],"TIMP-3 (ng/ml) in conditioned medium (HTB-94 cells; Table 7, peptides 2 microM) [ng/mL]","TIMP-3 (ng/ml) in conditioned medium (HTB-94 cells; Table 6, peptides 2 microM) [ng/mL]",other results
"Cluster III: LRP-1 peptide, amino acids 2524- (end not printed)",–,–,–,–,Accumulation of TIMP-3 in conditioned medium by Western blot (HTB-94 cells): did not result in significant accumulation
"LA3-4: LRP-1 peptide multimer, amino acids 854-930","9,000 cps","3,500 cps",–,–,–
"LA3-5: LRP-1 peptide multimer, amino acids 854-975","4,000 cps","9,000 cps",4.22,–,–
"LA3: LRP-1 peptide monomer, amino acids 854-894","2,200 cps","2,000 cps",–,0.60,–
"LA4-5: LRP-1 peptide multimer, amino acids 895-975","2,200 cps","2,000 cps",2.68,–,–
"LA5-7: LRP-1 peptide multimer, amino acids 931-1061","2,000 cps","8,000 cps",–,–,–
"LA5: LRP-1 peptide monomer, amino acids 931-975","2,200 cps","2,000 cps",–,0.94,"EC50 (TIMP-3; Assay 2, read-out: Binding ELISA EC50 (nm) Assay 2): 1080 nM"
"LA6: LRP-1 peptide monomer, amino acids 976-1014","2,200 cps",–,–,1.07,–
"LA16: LRP-1 peptide monomer, amino acids 2734-2773","2,200 cps",–,–,0.94,–
"LA18-20: LRP-1 peptide multimer, amino acids 2818- (end not printed)","3,000 cps",–,–,–,EC50 (TIMP-3; [2]): ~300 nM
"LA21: LRP-1 peptide monomer, amino acids 3334-3373","2,200 cps",–,–,1.82,–
"LA22: LRP-1 peptide monomer, amino acids 3374-3412","2,200 cps",–,–,0.96,–
"LA23-24: LRP-1 peptide multimer, amino acids 3413-3493","2,200 cps","2,000 cps",1.38,–,–
"LA24-25: LRP-1 peptide multimer, amino acids 3453-3535","290,000 cps","130,000 cps",2.48,–,–
"LA24-26: LRP-1 peptide multimer, amino acids 3453- (end not printed)","150,000 cps","120,000 cps",10.38,–,–
"LA24: LRP-1 peptide monomer, amino acids 3453-3493","2,200 cps","2,000 cps",–,0.41,–
"LA25-26: LRP-1 peptide multimer, amino acids printed as 3594-3574","20,000 cps","5,000 cps",9.30,–,–
"LA25: LRP-1 peptide monomer, amino acids 3494-3535","5,000 cps","2,000 cps",1.24,–,–
"LA26: LRP-1 peptide monomer, amino acids 3536-3574","2,200 cps",–,1.01,–,–
"LA27: LRP-1 peptide monomer, amino acids 3575-3612","2,200 cps",–,0.65,–,–
"LA15-17: LRP-1 peptide multimer, amino acids 2696- (end not printed) (protein) CPLNYFACPSGRCIPMSWTCDKEDDCEHGEDETHCNKFCSEAQFECQNHRCISKQWLCDGSDDCGDGSDEAAHCEGKTCGPSSFSCPGTHVCVPERWLCDGDKDCADGADESIAAGCLYNST","90,000 cps","70,000 cps",4.70,–,–
"LA3-10: LRP-1 peptide multimer, not listed in Table 1 (protein) CQPGEFACANSRCIQERWKCDGDNDCLDNSDEAPALCHQHTCPSDRFKCENNRCIPNRWLCDGDNDCGNSEDESNATCSARTCPPNQFSCASGRCIPISWTCDLDDDCGDRSDESASCAYPTCFPLTQFTCNNGRCININWRCDNDNDCGDNSDEAGCSHSCSSTQFKCNSGRCIPEHWTCDGDNDCGDYSDETHANCTNQATRPPGGCHTDEFQCRLDGLCIPLRWRCDGDTDCMDSSDEKSCEGVTHVCDPSVKFGCKDSARCISKAWVCDGDNDCEDNSDEENCESLACRPPSHPCANNTSVCLPPDKLCDGNDDCGDGSDEGELCDQ",–,"100,000 cps",–,–,"EC50 (TIMP-3; [2]): 45.5 nM; EC50 (TIMP-3; Assay 3, read-out: Binding ELISA EC50 (nm) Assay 3): 32.5 nM"
"Cluster I: LRP-1 peptide, amino acids 27-114 of LRP-1 (SEQ ID NO:1) (protein, listed as Homo sapiens) CSPKQFACRDQITCISKGWRCDGERDCPDGSDEAPEICPQSKAQRCQPNEHNCLGTELCVPMSRLCNGVQDCMDGSDEGPHCRELQGN",–,–,0.87,0.65,"TIMP-3 (ng/ml) in conditioned medium (HTB-94 cells; Table 5, polypeptide 0.5 microM): 1.02 ng/mL; TIMP-3 (ng/ml) in conditioned medium (HTB-94 cells; Table 5, polypeptide 1 microM): 0.86 ng/mL; TIMP-3 (ng/ml) in conditioned medium (HTB-94 cells; Table 5, polypeptide 2 microM): 0.81 ng/mL; TIMP-3 (ng/ml) in conditioned medium (HTB-94 cells; Table 8, polypeptide 0.5 microM): 1.41 ng/mL; TIMP-3 (ng/ml) in conditioned medium (HTB-94 cells; Table 8, polypeptide 1 microM): 1.19 ng/mL; TIMP-3 (ng/ml) in conditioned medium (HTB-94 cells; Table 8, polypeptide 2 microM): 1.44 ng/mL; Accumulation of TIMP-3 in conditioned medium by Western blot (HTB-94 cells): did not result in significant accumulation"
"LA13-15: LRP-1 peptide multimer, amino acids 2605- (end not printed) (protein) CGVGEFRCRDGTCIGNSSRCNQFVDCEDASDEMNCSATDCSSYFRLGVKGVLFQPCERTSLCYAPSWVCDGANDCGDYSDERDCPGVKRPRCPLNYFACPSGRCIPMSWTCDKEDDCEHGEDETHCNKF","1,200 cps",–,–,–,–
